Tests used:
Assay type in all cases: in vivo
Conditions in all cases: rated four to five weeks after treatment
[1] = system: AMBROSIA ARTEMISIIFOLIA, L.; test: Preemergence herbicidal evaluation, AMBEL (Ragweed, Common); set-up: key to AMBEL: visual rating scale 0-9 vs control
Source text: (§1) Results of herbicide evaluation are expressed on a rating scale (0-9). The scale is based upon a visual observation of plant stand, vigor, malformation, size, chlorosis and overall plant appearance as compared with a control.
(§2) The preemergence herbicidal activity of the test compounds of the present invention is exemplified by the following tests in which the seeds of a variety of monocotyledonous and dicotyledonous plants are separately mixed with potting soil and planted on top of approximately one inch of soil in separate pint cups. After planting, the cups are sprayed with the selected aqueous acetone solution containing test compound in sufficient quantity to provide the equivalent of about 0.125 to 0.50 kg per hectare of test compound per cup. The treated cups are then placed on greenhouse benches, watered and cared for in accordance with conventional greenhouse procedures. From four to five weeks after treatment, the tests are terminated and each cup is examined and rated according to the rating system provided in Example 42.

IPOMOEA SPP. = test: Preemergence herbicidal evaluation, IPOSS (Morningglory Spp.); set-up: key to IPOSS: visual rating scale 0-9 vs control
Source text: as §1, §2

[2] = system: ABUTILON THEOPHRASTI, MEDIC.; test: Preemergence herbicidal evaluation, ABUTH (Velvetleaf); set-up: key to ABUTH: visual rating scale 0-9 vs control
Source text: as §1, §2

[3] = system: ECHINOCHLOA CRUS-GALLI, (L) BEAU; test: Postemergence herbicidal evaluation, ECHCG (Barnyardgrass)
Experimental: (§3) In the tests, seedling plants are grown in jiffy flats for about two weeks. The test compounds are dispersed in 50/50 acetone/water mixtures containing 0.5% TWEEN®20, a polyoxyethylene sorbitan monolaurate surfactant of Atlas Chemical Industries, in sufficient quantities to provide the equivalent of about 0.125 kg to 0.500 kg per hectare of active compound when applied to the plants through a spray nozzle operating at 40 psi for a predetermined time. After spraying, the plants are placed on greenhouse benches and are cared for in the usual manner, commensurate with conventional greenhouse practices. From four to five weeks after treatment, the seedling plants are examined and rated according to the rating system set forth below. Where more than one test is involved for a given compound, the data are averaged.
as §1

ZEA MAYS L. = test: Preemergence herbicidal evaluation, ZEAMX (Corn, Field); set-up: key to ZEAMX: visual rating scale 0-9 vs control
Source text: as §1, §2

[4] = system: GLYCINE MAX(L)MERR. CV. WILLIAMS; test: Preemergence herbicidal evaluation, GLXMAW (Soybean, Williams); set-up: key to GLXMAW: visual rating scale 0-9 vs control
Source text: as §1, §2

[5] = system: ORYZA SATIVA, L. TEBONNET; test: Preemergence herbicidal evaluation, ORYSAT (Rice, Tebonnet); set-up: key to ORYSAT: visual rating scale 0-9 vs control
Source text: as §1, §2

[6] = system: TRITICUM AESTIVUM, CV. APOLLO; test: Preemergence herbicidal evaluation, TRZAWO (Wheat, Winter, CV. APOLLO); set-up: key to TRZAWO: visual rating scale 0-9 vs control
Source text: as §1, §2

[7] = system: SETARIA VIRIDIS, (L) BEAU; test: Postemergence herbicidal evaluation, SETVI (Foxtail, Green)
Experimental: as §3, §1

GALIUM APARINE = test: Preemergence herbicidal evaluation, GALAP (Galium); set-up: key to GALAP: visual rating scale 0-9 vs control
Source text: as §1, §2

[8] = system: ECHINOCHLOA CRUS-GALLI, (L) BEAU; test: Preemergence herbicidal evaluation, ECHCG (Barnyardgrass); set-up: key to ECHCG: visual rating scale 0-9 vs control
Source text: as §1, §2

[9] = system: SETARIA VIRIDIS, (L) BEAU; test: Preemergence herbicidal evaluation, SETVI (Foxtail, Green); set-up: key to SETVI: visual rating scale 0-9 vs control
Source text: as §1, §2

CHENOPODIUM ALBUM, L. = test: Preemergence herbicidal evaluation, CHEAL (Lambsquarters, Common); set-up: key to CHEAL: visual rating scale 0-9 vs control
Source text: as §1, §2

CASSIA OBTUSIFOLIA, L. = test: Preemergence herbicidal evaluation, CASOB (Sicklepod); set-up: key to CASOB: visual rating scale 0-9 vs control
Source text: as §1, §2

Cn1c(=O)n(CC(=O)O)c(=O)n(-c2cc(N3C(=O)C4=C(CCCC4)C3=O)c(F)cc2Cl)c1=O [Compound 3, 3-[2-Chloro-5-(1-cyclohexene-1,2-dicarbox-imido)-4-fluorophenyl]tetrahydro-5-methyl-2,4,6-trioxo-s-triazine-1(2H)-acetic acid]
Herbicide rating (0-9) AMBEL ([1]; 0.125 kg/ha): 0.0
Herbicide rating (0-9) AMBEL ([1]; 0.250 kg/ha): 0.0
Herbicide rating (0-9) AMBEL ([1]; 0.500 kg/ha): 0.0
Herbicide rating (0-9) IPOSS (IPOMOEA SPP.; 0.125 kg/ha): 0.0
Herbicide rating (0-9) IPOSS (IPOMOEA SPP.; 0.250 kg/ha): 0.0
Herbicide rating (0-9) IPOSS (IPOMOEA SPP.; 0.500 kg/ha): 0.0
Herbicide rating (0-9) ABUTH ([2]; 0.125 kg/ha): 0.0
Herbicide rating (0-9) ABUTH ([2]; 0.250 kg/ha): 0.0
Herbicide rating (0-9) ABUTH ([2]; 0.500 kg/ha): 0.0
Herbicide rating (0-9) ECHCG ([3]; 0.125 kg/ha): 0.0
Herbicide rating (0-9) ECHCG ([3]; 0.250 kg/ha): 0.0
Herbicide rating (0-9) ECHCG ([3]; 0.500 kg/ha): 0.0
Herbicide rating (0-9) ZEAMX (ZEA MAYS L.; 0.125 kg/ha): 0.0
Herbicide rating (0-9) ZEAMX (ZEA MAYS L.; 0.250 kg/ha): 0.0
Herbicide rating (0-9) ZEAMX (ZEA MAYS L.; 0.500 kg/ha): 0.0
Herbicide rating (0-9) GLXMAW ([4]; 0.125 kg/ha): 0.0
Herbicide rating (0-9) GLXMAW ([4]; 0.250 kg/ha): 0.0
Herbicide rating (0-9) GLXMAW ([4]; 0.500 kg/ha): 0.0
Herbicide rating (0-9) ORYSAT ([5]; 0.125 kg/ha): 0.0
Herbicide rating (0-9) ORYSAT ([5]; 0.250 kg/ha): 0.0
Herbicide rating (0-9) ORYSAT ([5]; 0.500 kg/ha): 0.0
Herbicide rating (0-9) TRZAWO ([6]; 0.125 kg/ha): 0.0
Herbicide rating (0-9) TRZAWO ([6]; 0.250 kg/ha): 0.0
Herbicide rating (0-9) TRZAWO ([6]; 0.500 kg/ha): 0.0
Herbicide rating (0-9) SETVI ([7]; 0.125 kg/ha): 0.0
Herbicide rating (0-9) SETVI ([7]; 0.250 kg/ha): 0.0
Herbicide rating (0-9) SETVI ([7]; 0.500 kg/ha): 0.0

C#CCn1c(=O)n(C)c(=O)n(-c2cc(N3C(=O)C4=C(CCCC4)C3=O)c(F)cc2Cl)c1=O [Compound 16, N-{4-Chloro-2-fluoro-5-[hexahydro-3-methyl-2,4,6-trioxo-5-(2-propynyl)-s-triazin-1-yl]phenyl}-1-cyclohexene-1,2-dicarboximide]
AMBEL ([1]; Rate 0.125 kg/ha): 0.0
AMBEL ([1]; Rate 0.250 kg/ha): 0.0
AMBEL ([1]; Rate 0.500 kg/ha): 2.0
IPOSS (IPOMOEA SPP.; Rate 0.125 kg/ha): 0.0
IPOSS (IPOMOEA SPP.; Rate 0.250 kg/ha): 0.0
IPOSS (IPOMOEA SPP.; Rate 0.500 kg/ha): 0.0
ABUTH ([2]; Rate 0.125 kg/ha): 2.0
ABUTH ([2]; Rate 0.250 kg/ha): 6.0
ABUTH ([2]; Rate 0.500 kg/ha): 9.0
GALAP (GALIUM APARINE; Rate 0.125 kg/ha): 0.0
GALAP (GALIUM APARINE; Rate 0.250 kg/ha): 0.0
GALAP (GALIUM APARINE; Rate 0.500 kg/ha): 4.0
ECHCG ([8]; Rate 0.125 kg/ha): 0.0
ECHCG ([8]; Rate 0.250 kg/ha): 0.0
ECHCG ([8]; Rate 0.500 kg/ha): 0.0
SETVI ([9]; Rate 0.125 kg/ha): 0.0
SETVI ([9]; Rate 0.250 kg/ha): 0.0
SETVI ([9]; Rate 0.500 kg/ha): 3.0
Herbicide rating (0-9) ECHCG ([3]; 0.125 kg/ha): 0.0
Herbicide rating (0-9) ECHCG ([3]; 0.250 kg/ha): 0.0
Herbicide rating (0-9) ECHCG ([3]; 0.500 kg/ha): 0.0
ZEAMX (ZEA MAYS L.; Rate 0.125 kg/ha): 0.0
ZEAMX (ZEA MAYS L.; Rate 0.250 kg/ha): 1.0
ZEAMX (ZEA MAYS L.; Rate 0.500 kg/ha): 2.0
CHEAL (CHENOPODIUM ALBUM, L.; Rate 0.125 kg/ha): 6.0
CHEAL (CHENOPODIUM ALBUM, L.; Rate 0.250 kg/ha): 8.0
CHEAL (CHENOPODIUM ALBUM, L.; Rate 0.500 kg/ha): 9.0
GLXMAW ([4]; Rate 0.125 kg/ha): 0.0
GLXMAW ([4]; Rate 0.250 kg/ha): 0.0
GLXMAW ([4]; Rate 0.500 kg/ha): 0.0
ORYSAT ([5]; Rate 0.125 kg/ha): 0.0
ORYSAT ([5]; Rate 0.250 kg/ha): 0.0
ORYSAT ([5]; Rate 0.500 kg/ha): 0.0
TRZAWO ([6]; Rate 0.125 kg/ha): 0.0
TRZAWO ([6]; Rate 0.250 kg/ha): 0.0
TRZAWO ([6]; Rate 0.500 kg/ha): 0.0
CASOB (CASSIA OBTUSIFOLIA, L.; Rate 0.125 kg/ha): 0.0
CASOB (CASSIA OBTUSIFOLIA, L.; Rate 0.250 kg/ha): 0.0
CASOB (CASSIA OBTUSIFOLIA, L.; Rate 0.500 kg/ha): 0.0
Herbicide rating (0-9) SETVI ([7]; 0.125 kg/ha): 0.0
Herbicide rating (0-9) SETVI ([7]; 0.250 kg/ha): 0.0
Herbicide rating (0-9) SETVI ([7]; 0.500 kg/ha): 0.0

C=CCn1c(=O)n(C)c(=O)n(-c2cc(N3C(=O)C4=C(CCCC4)C3=O)c(F)cc2Cl)c1=O [Compound 17, N-[5-(3-Allylhexahydro-5-methyl-2,4,6-trioxo-s-triazin-1-yl)-4-chloro-2-fluoro-phenyl]-1-cyclohexene-1,2-dicarboximide]
AMBEL ([1]; Rate 0.125 kg/ha): 0.0
AMBEL ([1]; Rate 0.250 kg/ha): 0.0
AMBEL ([1]; Rate 0.500 kg/ha): 2.0
IPOSS (IPOMOEA SPP.; Rate 0.125 kg/ha): 0.0
IPOSS (IPOMOEA SPP.; Rate 0.250 kg/ha): 0.0
IPOSS (IPOMOEA SPP.; Rate 0.500 kg/ha): 0.0
ABUTH ([2]; Rate 0.125 kg/ha): 0.0
ABUTH ([2]; Rate 0.250 kg/ha): 3.0
ABUTH ([2]; Rate 0.500 kg/ha): 9.0
GALAP (GALIUM APARINE; Rate 0.125 kg/ha): 0.0
GALAP (GALIUM APARINE; Rate 0.250 kg/ha): 7.0
GALAP (GALIUM APARINE; Rate 0.500 kg/ha): 4.0
ECHCG ([8]; Rate 0.125 kg/ha): 0.0
ECHCG ([8]; Rate 0.250 kg/ha): 0.0
ECHCG ([8]; Rate 0.500 kg/ha): 0.0
SETVI ([9]; Rate 0.125 kg/ha): 0.0
SETVI ([9]; Rate 0.250 kg/ha): 0.0
SETVI ([9]; Rate 0.500 kg/ha): 3.0
Herbicide rating (0-9) ECHCG ([3]; 0.125 kg/ha): 0.0
Herbicide rating (0-9) ECHCG ([3]; 0.250 kg/ha): 0.0
Herbicide rating (0-9) ECHCG ([3]; 0.500 kg/ha): 0.0
ZEAMX (ZEA MAYS L.; Rate 0.125 kg/ha): 0.0
ZEAMX (ZEA MAYS L.; Rate 0.250 kg/ha): 0.0
ZEAMX (ZEA MAYS L.; Rate 0.500 kg/ha): 3.0
CHEAL (CHENOPODIUM ALBUM, L.; Rate 0.125 kg/ha): 6.0
CHEAL (CHENOPODIUM ALBUM, L.; Rate 0.250 kg/ha): 9.0
CHEAL (CHENOPODIUM ALBUM, L.; Rate 0.500 kg/ha): 9.0
GLXMAW ([4]; Rate 0.125 kg/ha): 0.0
GLXMAW ([4]; Rate 0.250 kg/ha): 0.0
GLXMAW ([4]; Rate 0.500 kg/ha): 0.0
ORYSAT ([5]; Rate 0.125 kg/ha): 0.0
ORYSAT ([5]; Rate 0.250 kg/ha): 0.0
ORYSAT ([5]; Rate 0.500 kg/ha): 2.0
TRZAWO ([6]; Rate 0.125 kg/ha): 0.0
TRZAWO ([6]; Rate 0.250 kg/ha): 0.0
TRZAWO ([6]; Rate 0.500 kg/ha): 0.0
CASOB (CASSIA OBTUSIFOLIA, L.; Rate 0.125 kg/ha): 0.0
CASOB (CASSIA OBTUSIFOLIA, L.; Rate 0.250 kg/ha): 0.0
CASOB (CASSIA OBTUSIFOLIA, L.; Rate 0.500 kg/ha): 0.0

From EP0745599A2, “1-(3-Heterocyclylphenyl)-s-triazine-2,4,6-oxo or thiotrione herbicidal agents” (American Cyanamid Company, priority 1995, dated 1996)
